Experimental data published in patent US10179123B2, “2-aryl- and 2-arylalkyl-benzimidazoles as mIDH1 inhibitors” (BAYER PHARMA AKTIENGESELLSCHAFT, priority 2015, dated 2019).

target: IDH1 R132H enzyme (Homo sapiens (Human), UniProt O75874, R132H); assay: Mutant IDH1 R132H biochemical assay; settings: NADPH consumption, luminescent readout; 1.5 nM enzyme, 1 μM NADPH, 250 μM α-KG, 30 minutes, 32° C.
Procedure: NADPH consumption was measured by luminescent readout. […] The final DMSO concentration was 2.4%. […] Luminescence was measured on a luminescent reader (10 seconds measuring time, 1 second integration period, 30% sensitivity). The decrease in luminescence is proportional to mIDH1 activity. IC50 values are determined by interpolation from plots of relative luminescence versus inhibitor concentration.

Chain of IDH1 R132H enzyme (O75874 whole entry R132H): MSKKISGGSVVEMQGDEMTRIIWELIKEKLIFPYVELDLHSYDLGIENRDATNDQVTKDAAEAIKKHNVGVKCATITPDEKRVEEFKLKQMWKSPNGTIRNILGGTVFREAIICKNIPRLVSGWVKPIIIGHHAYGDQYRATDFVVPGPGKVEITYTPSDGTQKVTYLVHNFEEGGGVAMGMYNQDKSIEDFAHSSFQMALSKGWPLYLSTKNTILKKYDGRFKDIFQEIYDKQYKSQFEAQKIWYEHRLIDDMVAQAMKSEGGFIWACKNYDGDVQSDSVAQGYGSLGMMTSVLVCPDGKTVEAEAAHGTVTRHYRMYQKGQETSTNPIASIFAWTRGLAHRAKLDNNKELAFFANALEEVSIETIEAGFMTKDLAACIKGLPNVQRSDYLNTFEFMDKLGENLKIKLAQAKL

IC50 [nM]	Structure (SMILES)
800	COC(=O)c1ccc2c(nc(Cc3ccc(OC(F)(F)F)cc3)n2C2CC(C)(C)CC(C)(C)C2)c1F [Example 2-22, methyl 4-fluoro-1-(3,3,5,5-tetramethylcyclohexyl)-2-[4-(trifluoromethoxy)benzyl]-1H-benzimidazole-5-carboxylate]
700	C[C@@H]1C[C@H](n2c(Cc3ccc(C(F)(F)F)cc3)nc3cc(C#N)ccc32)CC(C)(C)C1 (racemic) [Example 2-26, (±) 2-[4-(trifluoromethyl)benzyl]-1-[(cis)-3,3,5-trimethylcyclohexyl]-1H-benzimidazole-5-carbonitrile]
450	CC(C)Oc1ccc(Cc2nc3cc(C(=O)O)ccc3n2[C@@H]2C[C@H](C)CC(C)(C)C2)cc1 (stereo in doubt) [Example 2-32-1]
1800	C[C@H]1C[C@@H](n2c(Cc3cccc(OC(F)(F)F)c3)nc3cc(C(=O)O)ccc32)CC(C)(C)C1 (stereo in doubt) [Example 2-40]
1700	COC(=O)c1ccc2c(c1)nc(Cc1ccc(OC(F)(F)F)cc1)n2[C@H]1C[C@@H](C)CC(C)(C)C1 (single isomer, unassigned) [Example 2-3-1, methyl 2-[4-(trifluoromethoxy)benzyl]-1-[(cis)-3,3,5-trimethylcyclohexyl]-1H-benzimidazole-5-carboxylate]
1000	C[C@H]1C[C@@H](n2c(Cc3ccc(OC(F)(F)F)cc3)nc3cc(C(=O)O)c(OCC(F)(F)F)cc32)CC(C)(C)C1 (stereo in doubt) [Example 2-47]
7000	Cc1[nH]c2ccc(F)cc2c1Cc1nc2cc(C(=O)O)ccc2n1[C@@H]1C[C@H](C)CC(C)(C)C1 (stereo in doubt) [Example 2-42]
350	CC(C)c1ccc(Cc2nc3cc(C#N)ccc3n2[C@H]2C[C@@H](C)CC(C)(C)C2)cc1 (racemic) [Example 2-25, (±) 2-[4-(propan-2-yl)benzyl]-1-[(cis)-3,3,5-trimethylcyclohexyl]-1H-benzimidazole-5-carbonitrile]
610	COC(=O)c1ccc2c(c1)nc(Cc1ccc(OC(F)(F)F)cc1)n2[C@H]1C[C@@H](C)CC(C)(C)C1 (single isomer, unassigned) [Example 2-3-2, methyl 2-[4-(trifluoromethoxy)benzyl]-1-[(cis)-3,3,5-trimethylcyclohexyl]-1H-benzimidazole-5-carboxylate]
5700	COC(=O)c1ccc2c(c1)nc(-c1ccc(OC(F)(F)F)cc1)n2[C@H]1C[C@@H](C)CC(C)(C)C1 (single isomer, unassigned) [Example 2-1-2, methyl 2-[4-(trifluoromethoxy)phenyl]-1-[(cis)-3,3,5-trimethylcyclohexyl]-1H-benzimidazole-5-carboxylate]
1000	COC(=O)c1ccc2c(c1)nc(-c1ccc(OC(F)(F)F)cc1)n2[C@H]1C[C@@H](C)CC(C)(C)C1 (single isomer, unassigned) [Example 2-1-1, methyl 2-[4-(trifluoromethoxy)phenyl]-1-[(cis)-3,3,5-trimethylcyclohexyl]-1H-benzimidazole-5-carboxylate]
670	COC(=O)c1ccc2c(c1)nc(Cc1ccc(OC(F)(F)F)cc1)n2[C@H]1C[C@@H](C)CC(C)(C)C1 (racemic) [Example 2-3, (±) methyl 2-[4-(trifluoromethoxy)benzyl]-1-[(cis)-3,3,5-trimethylcyclohexyl]-1H-benzimidazole-5-carboxylate]
10000	COC(=O)c1ccc2c(c1)nc(Cc1cccc(OC(F)(F)F)c1)n2[C@H]1C[C@@H](C)CC(C)(C)C1 (racemic) [Example 2-14, (±) methyl 2-[3-(trifluoromethoxy)benzyl]-1-[(cis)-3,3,5-trimethylcyclohexyl]-1H-benzimidazole-5-carboxylate]
1500	COC(=O)c1ccc2c(c1)nc(Cc1ccc(OC(C)C)cc1)n2[C@H]1C[C@@H](C)CC(C)(C)C1 (racemic) [Example 2-6, (±) methyl 2-[4-(propan-2-yloxy)benzyl]-1-[(cis)-3,3,5-trimethylcyclohexyl]-1H-benzimidazole-5-carboxylate]
2800	COC(=O)c1cc2nc(Cc3ccc(OC(F)(F)F)cc3)n([C@H]3C[C@@H](C)CC(C)(C)C3)c2cc1OC(C)C (racemic) [Example 2-20, (±) methyl 6-(propan-2-yloxy)-2[4-(trifluoromethoxy)benzyl]-1-[(cis)-3,3,5-trimethylcyclohexyl]-1H-benzimidazole-5-carboxylate]
5000	C[C@H]1C[C@@H](n2c(Cc3ccccc3OC(F)(F)F)nc3cc(C(=O)O)ccc32)CC(C)(C)C1 (stereo in doubt) [Example 2-39]
> 10000	COC(=O)c1ccc2c(c1)nc(C(C)(C)c1ccc(OC(F)(F)F)cc1)n2[C@H]1C[C@@H](C)CC(C)(C)C1 (racemic) [Reference compound 2-5, (±) methyl 2-{2-[4-(trifluoromethoxy)phenyl]propan-2-yl}-1-[(cis)-3,3,5-trimethylcyclohexyl]-1H-benzimidazole-5-carboxylate, reference compound]
2400	C[C@H]1C[C@@H](n2c(Cc3ccccc3)nc3cc(C(=O)O)ccc32)CC(C)(C)C1 (stereo in doubt) [Example 2-38]
1500	COC(=O)c1ccc2c(c1)nc(Cc1ccc(C)cc1)n2[C@H]1C[C@@H](C)CC(C)(C)C1 (racemic) [Example 2-10, (±) methyl 2-(4-methylbenzyl)-1-[(cis)-3,3,5-trimethylcyclohexyl]-1H-benzimidazole-5-carboxylate]
2000	C[C@H]1C[C@@H](n2c(Cc3ccc(OC(F)(F)F)cc3)nc3cc(C(=O)O)c(OCC(F)(F)F)cc32)CC(C)(C)C1 (stereo in doubt) [Example 2-47-1]
2300	Cc1nc(-c2ccccc2)sc1Cc1nc2cc(C(=O)O)ccc2n1[C@@H]1C[C@H](C)CC(C)(C)C1 (stereo in doubt) [Example 2-41]
1300	COC(=O)c1cc2nc(Cc3ccc(OC(F)(F)F)cc3)n([C@H]3C[C@@H](C)CC(C)(C)C3)c2cc1OC(C)C (single isomer, unassigned) [Example 2-20-1, methyl 6-(propan-2-yloxy)-2-[4-(trifluoromethoxy)benzyl]-1-[(cis)-3,3,5-trimethylcyclohexyl]-1H-benzimidazole-5-carboxylate]
650	C[C@@H]1C[C@H](n2c(Cc3ccc(OC(F)(F)F)cc3)nc3cc(C(=O)O)c(OCC(F)(F)F)cc32)CC(C)(C)C1 (stereo in doubt) [Example 2-47-2]

Structure (SMILES)	IC50 [nM]
COC(=O)c1ccc2c(c1)nc(C(C)c1ccc(OC(F)(F)F)cc1)n2[C@H]1C[C@@H](C)CC(C)(C)C1 (single isomer, unassigned) [Reference compound 2-4-3, methyl 2-{1-[4-(trifluoromethoxy)phenyl]ethyl}-1-[(cis)-3,3,5-trimethylcyclohexyl]-1H-benzimidazole-5-carboxylate, reference compound]	5000
COC(=O)c1ccc2c(c1)nc(C(C)c1ccc(OC(F)(F)F)cc1)n2[C@H]1C[C@@H](C)CC(C)(C)C1 (single isomer, unassigned) [Reference compound 2-4-1, methyl 2-{1-[4-(trifluoromethoxy)phenyl]ethyl}-1-[(cis)-3,3,5-trimethylcyclohexyl]-1H-benzimidazole-5-carboxylate, reference compound]	> 10000
